Measurements from patent US20150296783A1, “SYNERGISTIC COMBINATION OF A ZOXAMIDE COMPOUND AND TERBUTRYN FOR DRY FILM PROTECTION” (ROHM AND HAAS COMPANY, priority 2012, published 2015).

Columns and labels:
[1] = system: Chlorella sp. ATCC 7516; test: Algal efficacy testing of dry paint film (modified ASTM 5589), Chlorella; format: cell-based; conditions: 3 weeks; for Total conc (concentration chosen as minimum inhibitory concentration for SI): dry paint film, pass level ≧75% inhibition, total biocide in liquid paint
Procedure: (§1) Slurries containing 33% antimicrobial active ingredient (Zoxamide) and 45% antimicrobial ingredient Terbutryn were post added to a white, acrylic/silicone based outdoor paint free of biocides to give a total active ingredient concentration of […] respectively. These paints were then diluted with an antimicrobial free acrylic/silicone based paint and mixed to prepare targeted concentrations of antimicrobial compounds for the testing. The total biocides concentrations tested were 125, 250, 500, 1000, 2000 and 5000 ppm. After biocides addition or dilution, the paints were mixed 90 seconds with the horse power shaker (AXEL 75M3372/Agitateur SO-10MI) until uniformity was achieved. Paints containing different antimicrobial compounds at the same levels were mixed together in order to obtain the desired ratio of antimicrobial compounds. After one day, the paints were applied to Schleicher & Schuell filter paper at 280 μm wet film thickness and dried for 3 days at room temperature avoiding direct exposure to sunlight. Square discs (1.6 cm×1.6 cm) were cut out from each panel and were used as the substrate for algal efficacy tests. This sample size allowed for an agar border when the sample disc was placed into the well of the test plate.
(§2) Algal efficacy was tested according to modified ASTM 5589 which is a standard accelerated test method for determining resistance of various coatings (including paints) to algal defacement. To accommodate for high-throughput screening, this method was scaled down from petri dishes to 6-well plates. Bold Modified Basal Freshwater Nutrient Solution was used as growth medium. A single coated filter paper coupon was placed with a pair of sterile forceps at the center of the agar plug (on top) with the painted surface facing upwards. Algal inoculums were prepared by mixing equal concentrations (1×10^6 cfu/ml) and equal volumes of exponentially growing algae cultures.
(§3) Each well that contains a tested coupon was inoculated with 1750 μl of algal suspensions (1×10^6 cfu/ml) making sure that the whole surface (paint film as well as the agar surrounding it) was evenly covered. The plates were incubated at room temp (21° C.-25° C.) with cyclic exposure to light and dark phases, for a period of three weeks.
(§4) At the end of the three week incubation period, the samples were scored for percent inhibition regarding visible algal growth compared to the blank sample (0% inhibition).
(§5) The SI is calculated based on F .C. Kull et.
(§6) The minimal targeted inhibition was set at 75%, meaning a coupon with at least 75% algal growth inhibition was considered as a pass.

[2] = system: Stichococcus bacillaris SAG 379-1a / CCAP 379/1a; test: Algal efficacy testing of dry paint film (modified ASTM 5589), Stichococcus; format: cell-based; conditions: 3 weeks; for inhibition at 5000 ppm: Stichococcus bacillaris, 504 h, total conc 5000 ppm, visible algal growth vs blank; for Total conc (concentration chosen as minimum inhibitory concentration for SI): dry paint film, pass level ≧75% inhibition, total biocide in liquid paint
Procedure: as §1, §2, §3, §4, §5, §6

| SMILES | inhibition at 2000 ppm ([1]; 504 h, total conc 2000 ppm, visible algal growth vs blank) | Total conc (concentration chosen as minimum inhibitory concentration for SI) [1] | inhibition at 5000 ppm [2] | Total conc (concentration chosen as minimum inhibitory concentration for SI) [2] | inhibition at 5000 ppm ([1]; 504 h, total conc 5000 ppm, visible algal growth vs blank) |
| --- | --- | --- | --- | --- | --- |
| CCNc1nc(NC(C)(C)C)nc(SC)n1 [Terbutryn, N^2-tert-butyl-N^4-ethyl-6-methylthio-1,3,5-triazine-2,4-diamine] | 85% | 2000 ppm | 80% | 5000 ppm |  |
| CCC(C)(NC(=O)c1cc(Cl)c(C)c(Cl)c1)C(=O)CCl (centres unmarked) [Zoxamide, 3,5-Dichloro-N-(3-chloro-1-ethyl-1-methyl-2-oxopropyl)-4-methylbenzamide] |  | 5000 ppm | 45% | 5000 ppm | 60% |
